In patent publication US3985790A, “Phenoxyalkane carboxylic acid derivative” (priority 1974, dated 1976):
Read-outs that look alike come from different tables or passages of the source.

Columns and labels:
human lipid metabolism = conditions: French Pat. No. 1,552,793; cited from earlier work
[1] = system: serum cholesterol and serum triglyceride levels; format: in vivo, SPF-Wistar rats; conditions: 14 days
Description: (§1) The therapeutic effectiveness of the salt of this invention ("clofibrinate") was compared with that of the fundamental parent substance, namely the 4-(p-chlorophenoxyacetylamino)-benzoic acid diethylaminoethyl ester, as well as clofibrate, that is the ethyl ester of clofibrinic acid, using SPF-Wistar rats. In these tests the compound in a vehicle was supplied orally for a period of 14 days. Twenty-four hours after the last dose blood analyses were made for determining the serum cholesterol and serum triglyceride levels.
In a first series of experiments, the effectiveness was studied in rats having normal blood lipid levels which were made hyperlipemic by means of a special fatty diet 1. This cholesterol-rich fatty diet 1 corresponded to that of Berger et al., Proc. Soc. Ex. Biol. (1969) 132,293.

[2] = system: blood serum cholesterol and lipid levels; test: Effect on blood serum cholesterol and lipid levels, tolerability and toxicity, general statements; format: in vivo, SPF-Wistar rats; conditions: hyperlipemic conditions
Description: as §1
In a first series of experiments, the effectiveness was studied in rats having normal blood lipid levels which were made hyperlipemic by means of a special fatty diet 1. This cholesterol-rich fatty diet 1 corresponded to that of Berger et al., Proc. Soc.
In a second series young male rats of 80-90 grams weight were fed a fat and cholesterol-rich diet (fatty diet 2). The statistical significance (p) of the results is also given.

[3] = system: serum cholesterol and serum triglyceride levels; test: Antilipemic effect in young male rats, fatty diet 2 (high cholesterol-high fat), 14 days oral; format: in vivo, SPF-Wistar rats; conditions: fatty diet 2, 250 mg/kg oral
Description: In these tests the compound in a vehicle was supplied orally for a period of 14 days. Twenty-four hours after the last dose blood analyses were made for determining the serum cholesterol and serum triglyceride levels. In a second series young male rats of 80-90 grams weight were fed a fat and cholesterol-rich diet (fatty diet 2). The statistical significance (p) of the results is also given.

Acute toxicity (LD50) = conditions: mouse, in vivo
[4] = fatty diet 1, 1000 mg/kg oral, 3 of 10 animals died

Structure (SMILES)	influence on human lipid metabolism (human lipid metabolism)	Decrease of cholesterol ([1]; fatty diet 1, 100 mg/kg oral)	Final Value Cholest. ([1]; fatty diet 1, 100 mg/kg oral)	Final Value Triglycerides ([1]; fatty diet 1, 100 mg/kg oral)	Decrease of cholesterol ([1]; fatty diet 1, 250 mg/kg oral)	Final Value Cholest. ([1]; fatty diet 1, 250 mg/kg oral)	Final Value Triglycerides ([1]; fatty diet 1, 250 mg/kg oral)	effectiveness against elevated cholesterol and elevated triglyceride levels [2]	Decrease of triglycerides [3]	Final Value Cholest. [3]	Final Value Triglycerides [3]	LD50 (Acute toxicity (LD50))	Decrease of triglycerides ([1]; fatty diet 1, 250 mg/kg oral)	Decrease of cholesterol [1, 4]	Final Value Cholest. [1, 4]	Final Value Triglycerides [1, 4]
CCN(CC)CCOC(=O)c1ccc(NC(=O)COc2ccc(Cl)cc2)cc1 [Parent Compound, 4-(p-chlorophenoxyacetylamino)-benzoic acid diethylaminoethyl ester]	have an influence on human lipid metabolism	7.8%	330.6 mg%	114.9	24.9%	269.4 mg%	101.6									
CCOC(=O)C(C)(C)Oc1ccc(Cl)cc1 [Clofibrate, ethyl-2-(p-chlorophenoxy)-isobutyrate]					3.0%	347.9 mg%	75.6	only slightly effective under hyperlipemic conditions or even fails completely	20.6%	133.3 mg %	107.7	1150 mg/kg	12.5%	31.6%	245.4 mg%	120.3
